Drawing on US12559506B2, “Indazole based compounds and associated methods of use” (Arvinas Operations, Inc., priority 2021, dated 2026), this text covers DC50 and Dmax for twelve compounds.

Structures are written as SMILES. Like-named read-outs stand apart in the source and are kept apart here. Some results are limits rather than exact numbers.

This experiment addresses T1, LRRK2 (endogenous, HiBit tagged) (Homo sapiens, UniProt Q5S007).
T1 construct: endogenous in cells; host or cells: HEK293 cells with HiBit knock-in at the endogenous LRRK2 locus, stably expressing firefly luciferase
Put plainly: Endogenous LRRK2 degradation assay, endogenous gene C-terminally HiBit-tagged in HEK293 cells (Nano-Glo Dual Luciferase). Format: cell-based. The text has this: Exemplary Assay for Testing LRRK2 Degradation Driven by Exemplary Hetero-Bifunctional Compounds Designed to Target LRRK2
The assay measures the degradation of LRRK2 in cells where the C-terminus (3′) of the endogenous gene has been tagged with a HiBit sequence in HEK293 cells. The cells also express firefly luciferase, expressed from a Cytomegalovirus promoter and introduced into the HiBit tagged cells and stably expressed. The Nano-Glo® Dual Luciferase Reporter Assay System (Promega™, Madison, WI) was utilized.
Day 1—Preparation of Compound and Assay Plates. Two sets of plates were prepared: a triplicate set for the HiBit assay in white 384-well plates and a triplicate set of plate in black 384-well plates for the Alamar Blue cell viability assay. Briefly, the growth media (DMEM+Glutamax-10% fetal bovine serum-1% Penicillin-Streptomicin) from two T128 flasks was aspirated from the flasks. Cells were washed with Dulbecco's Phosphate Buffered Saline (dPBS) and aspirated. Trypsin (3 mL per flask) was added and the flasks were incubated for 2-3 minutes.
Ten mL of OptiMEM-10% fetal bovine-1% penicillin-streptomycin (hereinafter, “OptiMEM media”) was added to the flask and the cells and transferred to a 50 mL conical tube. A cell count (25 ul of cell into Effendorf vial+25 ul of Trypan Blue Stain) was performed and the cell density adjusted to 15,000 cell/45 μl/well (3.33×10^5/mL) in OptiMEM media.
Fourty-five microliters of the cell suspension (15,000 cells) was aliquoted to each well of the white 384-well plate. The plates incubated at room temperature for 10 minutes before being placed in the 37° C.+5% CO2 incubator overnight
Day 2—Compound Treatment. Exemplary compounds were prepared at a 1 mM starting concentration and 1:3 serial dilution for 11 points CRC prepared and stored in the freezer. The Master Compound Plate was thawed overnight at room temperature. DMSO (20 μL) was added into column 24 of the Master Compound Plate for negative control and 20 μL of 300 μM of Compound 4 in column 23 as positive control.
Intermediate Compound Plate with 4% DMSO in OptiMEM Media. DMSO was added to warm OptiMEM media to achieve a 4% DMSO solution (approximately 50 mL/plate). One-hundred microliters of the OptiMEM-4% DMSO was aliquoted to each well of 384-Well Deep Well Microplates.
The Master Compound Plate and the Intermediate Compound Plate were spun down.
One microliter of compound from the Master Compound Plate was transferred into the Intermediate plate (a 1:100 dilution). The diluted mixture was mixed and 5 μL transferred into the assay plate (a 1:10 dilution) for the final starting concentration of 1 μM. The Treated Assay plates were incubated for 24 hours at 37° C.+5% CO2. The Master Compound Plate was sealed and store at room temperature for a second run that was performed within a week.
Day 3—HiBit Assay. Five microliters of Alamar Blue was added to each well of the black 384-well plates. The plates were incubated for 2 hours in the incubator (37° C.+5% CO2) and at room temperature for one hour. Fluorescence of each plate was read on a plated reader for the Alamar Blue viability assay.
One set of white assay plates was warmed to room temperature (45 minute).
The One Glo luciferase mixture was prepared. The media from white 384-well assay plates was aspirated. Twenty-five μL of the One Glo luciferase mixture was added to each well of the assay plates. The plates were incubated on the bench (room temperature) for 45 minutes, including 10 minutes of shaking at 700 rpm. The luminescence of each plate was read on a plate reader.
1:100 DLR substrate and 1:100 LgBiT Protein dilution were added to the Promega Stop and Glo buffer and mixed just before addition to assay plates. Twenty-five microliters of Stop and Glo mixture was added to each well. Assay plates incubated for at least 45 minutes, including 10 minutes of shaking at 700 rpm. The luminescence of each plate was read on a plate reader.
Analysis of LRRK2 HiBit Screening assays. […]
For orientation: The HiBiT peptide binds its large partner to form an active luciferase.

Where [1] appears, read: endogenous HiBit-tagged LRRK2 in HEK293 cells, 24 hours treatment, read-out: Endogenous WT DC50.
The mark [2] stands for this setting: endogenous HiBit-tagged LRRK2 in HEK293 cells, 24 hours treatment, read-out: Endogenous WT Dmax.
Setting [3] is: endogenous HiBit-tagged LRRK2 in HEK293 cells, 24 hours treatment, read-out: **Endogenous WT Dmax (%).
[4] abbreviates: endogenous HiBit-tagged LRRK2 in HEK293 cells, 24 hours treatment, read-out: *Endogenous WT DC50.
[5] abbreviates: endogenous HiBit-tagged LRRK2, HEK293 cells, 24 hours, read-out: **Endogenous WT Dmax (%).
The mark [6] stands for this setting: endogenous HiBit-tagged LRRK2, HEK293 cells, 24 hours, read-out: *Endogenous WT DC50.

As usually defined, the DC50 is the concentration giving 50% degradation. In general, Dmax refers to the greatest extent of degradation seen.

T1 sequence (Q5S007 whole entry): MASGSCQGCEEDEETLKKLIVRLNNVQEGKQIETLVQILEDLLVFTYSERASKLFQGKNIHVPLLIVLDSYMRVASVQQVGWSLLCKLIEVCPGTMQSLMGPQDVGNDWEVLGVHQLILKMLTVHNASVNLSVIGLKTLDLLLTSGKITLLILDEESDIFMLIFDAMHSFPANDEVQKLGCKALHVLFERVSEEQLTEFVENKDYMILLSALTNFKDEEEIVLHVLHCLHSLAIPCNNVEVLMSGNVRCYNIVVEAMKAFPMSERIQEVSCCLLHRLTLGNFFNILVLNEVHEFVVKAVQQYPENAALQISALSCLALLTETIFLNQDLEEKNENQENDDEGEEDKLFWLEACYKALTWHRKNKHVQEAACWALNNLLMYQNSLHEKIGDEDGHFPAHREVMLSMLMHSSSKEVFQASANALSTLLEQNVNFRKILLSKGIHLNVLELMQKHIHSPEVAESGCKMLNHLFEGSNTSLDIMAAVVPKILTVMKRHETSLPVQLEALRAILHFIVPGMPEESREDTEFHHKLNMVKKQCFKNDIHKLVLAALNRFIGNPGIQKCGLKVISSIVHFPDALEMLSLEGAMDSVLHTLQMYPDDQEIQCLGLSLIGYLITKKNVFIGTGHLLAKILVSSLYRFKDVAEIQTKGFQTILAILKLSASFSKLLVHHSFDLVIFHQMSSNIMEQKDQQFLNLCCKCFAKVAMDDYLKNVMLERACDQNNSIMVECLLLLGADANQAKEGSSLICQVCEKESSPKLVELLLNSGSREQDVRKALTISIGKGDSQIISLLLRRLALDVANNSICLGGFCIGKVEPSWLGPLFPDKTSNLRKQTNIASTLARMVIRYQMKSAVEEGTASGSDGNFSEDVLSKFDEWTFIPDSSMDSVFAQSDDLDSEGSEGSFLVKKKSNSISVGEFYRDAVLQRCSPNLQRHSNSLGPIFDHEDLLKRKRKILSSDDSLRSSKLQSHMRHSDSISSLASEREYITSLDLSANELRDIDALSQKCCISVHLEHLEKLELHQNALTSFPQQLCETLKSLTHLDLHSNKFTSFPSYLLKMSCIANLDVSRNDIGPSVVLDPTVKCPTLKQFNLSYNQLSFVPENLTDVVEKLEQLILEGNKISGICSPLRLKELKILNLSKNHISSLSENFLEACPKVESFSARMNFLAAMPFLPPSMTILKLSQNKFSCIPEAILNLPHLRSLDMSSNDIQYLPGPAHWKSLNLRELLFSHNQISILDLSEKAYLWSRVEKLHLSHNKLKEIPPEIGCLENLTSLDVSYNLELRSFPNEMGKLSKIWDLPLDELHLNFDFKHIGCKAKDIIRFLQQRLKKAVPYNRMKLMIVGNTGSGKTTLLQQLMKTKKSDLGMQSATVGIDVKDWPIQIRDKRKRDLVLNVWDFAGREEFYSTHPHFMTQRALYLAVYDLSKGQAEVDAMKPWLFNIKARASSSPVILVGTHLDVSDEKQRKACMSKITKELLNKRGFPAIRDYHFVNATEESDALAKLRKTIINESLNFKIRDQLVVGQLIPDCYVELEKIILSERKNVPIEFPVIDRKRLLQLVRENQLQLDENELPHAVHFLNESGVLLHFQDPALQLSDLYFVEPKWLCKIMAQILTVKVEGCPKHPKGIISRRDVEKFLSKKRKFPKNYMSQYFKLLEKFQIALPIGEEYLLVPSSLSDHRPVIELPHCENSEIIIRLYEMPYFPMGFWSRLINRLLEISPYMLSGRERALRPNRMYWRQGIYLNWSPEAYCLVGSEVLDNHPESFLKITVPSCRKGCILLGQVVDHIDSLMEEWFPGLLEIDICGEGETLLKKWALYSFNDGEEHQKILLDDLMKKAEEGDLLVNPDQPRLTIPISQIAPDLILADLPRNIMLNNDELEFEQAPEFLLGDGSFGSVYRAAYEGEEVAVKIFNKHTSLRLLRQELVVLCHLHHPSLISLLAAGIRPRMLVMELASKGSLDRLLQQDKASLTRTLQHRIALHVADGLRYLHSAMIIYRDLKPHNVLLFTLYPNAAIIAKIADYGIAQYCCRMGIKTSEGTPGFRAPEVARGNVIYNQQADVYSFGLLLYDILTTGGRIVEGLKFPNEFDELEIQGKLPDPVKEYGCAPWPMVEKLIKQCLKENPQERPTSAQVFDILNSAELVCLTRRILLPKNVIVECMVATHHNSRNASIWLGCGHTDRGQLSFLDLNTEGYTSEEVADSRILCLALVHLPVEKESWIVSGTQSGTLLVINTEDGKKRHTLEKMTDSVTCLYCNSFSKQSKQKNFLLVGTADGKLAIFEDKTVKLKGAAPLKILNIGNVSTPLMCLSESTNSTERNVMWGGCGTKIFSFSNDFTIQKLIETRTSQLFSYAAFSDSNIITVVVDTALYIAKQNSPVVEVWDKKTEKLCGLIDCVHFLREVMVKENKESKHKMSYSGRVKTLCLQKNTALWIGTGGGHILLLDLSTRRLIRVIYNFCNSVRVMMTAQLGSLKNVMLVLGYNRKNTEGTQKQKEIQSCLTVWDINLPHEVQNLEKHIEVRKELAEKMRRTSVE

Consider `CC1(Oc2ccc3[nH]nc(-c4cc(N5CCC(O[C@H]6CC[C@H](CN7CCN(c8ccc9c(c8F)CN(C8CCC(=O)NC8=O)C9=O)C(C)(C)C7)CC6)CC5)ncn4)c3c2)CC1` (stereo partly drawn) [Compound 378, 3-[5-(2,2-dimethyl-4-{[(1r,4r)-4-[(1-{6-[5-(1-methylcyclopropoxy)-1H-indazol-3-yl]pyrimidin-4-yl}piperidin-4-yl)oxy]cyclohexyl]methyl}piperazin-1-yl)-4-fluoro-1-oxo-2,3-dihydro-1H-isoindol-2-yl]piperidine-2,6-dione], for which, under setting [1], the DC50 is under 10 nM. In addition, under setting [2], the greatest degradation seen (Dmax) fell in the range of 50 to 70%.

Consider `CC1(Oc2cc3c(-c4cc(N5CCC(O[C@H]6CC[C@H](OC7CCN(c8ccc9c(c8F)CN(C8CCC(=O)NC8=O)C9=O)CC7)CC6)CC5)ncn4)n[nH]c3cn2)CC1` (stereo partly drawn) [Compound 210, 3-[4-fluoro-5-[4-[4-[[1-[6-[5-(1-methylcyclopropoxy)-1H-pyrazolo[3,4-c]pyridin-3-yl]pyrimidin-4-yl]-4-piperidyl]oxy]cyclohexoxy]-1-piperidyl]-1-oxo-isoindolin-2-yl]piperidine-2,6-dione], for which the 50% degradation concentration (DC50) under setting [1] is under 10 nM. Besides, under setting [2], the Dmax was at least 70%.

As to `CC1(Oc2cc3c(-c4cc(N5CCN(C[C@H]6CC[C@H](OC7CCN(c8ccc9c(c8F)CN(C8CCC(=O)NC8=O)C9=O)CC7)CC6)CC5)ncn4)n[nH]c3cc2F)CC1` (stereo partly drawn) [Compound 260, 3-[4-fluoro-1-oxo-5-(4-{[(1r,4r)-4-[(4-{6-[6-fluoro-5-(1-methylcyclopropoxy)-1H-indazol-3-yl]pyrimidin-4-yl}piperazin-1-yl)methyl]cyclohexyl]oxy}piperidin-1-yl)-2,3-dihydro-1H-isoindol-2-yl]piperidine-2,6-dione], the Dmax under setting [3] fell in the range of 50 to 70%. Besides, the DC50 under setting [4] is under 10 nM.

For the compound `COc1c(N2CCC(O[C@H]3C[C@H](N4CC5(CCN(c6cc(-c7[nH]nc8ccc(OC9(C)CC9)cc78)ncn6)CC5)C4)C3)CC2)ccc2c1CN(C1CCC(=O)NC1=O)C2=O` (stereo partly drawn) [Compound 347, 3-(4-methoxy-1-oxo-5-{4-[(1r,3r)-3-(7-{6-[5-(1-methylcyclopropoxy)-2H-indazol-3-yl]pyrimidin-4-yl}-2,7-diazaspiro[3.5]nonan-2-yl)cyclobutoxy]piperidin-1-yl}-2,3-dihydro-1H-isoindol-2-yl)piperidine-2,6-dione], the maximal degradation (Dmax) under setting [3] fell in the range of 50 to 70%. For the same compound, the DC50 under setting [4] is under 10 nM.

Consider `COc1c(N2CCN(C[C@H]3CC[C@H](OC4CCN(c5cc(-c6n[nH]c7cc(F)c(OC8(C)CC8)cc67)ncn5)CC4)CC3)CC2)ccc2c1CN(C1CCC(=O)NC1=O)C2=O` (stereo partly drawn) [Compound 281, 3-[4-methoxy-1-oxo-5-(4-{[(1r,4r)-4-[(1-{6-[6-fluoro-5-(1-methylcyclopropoxy)-1H-indazol-3-yl]pyrimidin-4-yl}piperidin-4-yl)oxy]cyclohexyl]methyl}piperazin-1-yl)-2,3-dihydro-1H-isoindol-2-yl]piperidine-2,6-dione], for which the Dmax under setting [3] is 50 to 70%. The DC50 under setting [4] is under 10 nM.

For the compound `CC1(Oc2cc3c(-c4cc(N5CCC(CN6CCC(F)(CC7CCN(c8ccc9c(c8F)CN(C8CCC(=O)NC8=O)C9=O)CC7)CC6)CC5)ncn4)n[nH]c3cc2F)CC1` (stereo not drawn) [Compound 232, 3-{4-fluoro-5-[4-({4-fluoro-1-[(1-{6-[6-fluoro-5-(1-methylcyclopropoxy)-1H-indazol-3-yl]pyrimidin-4-yl}piperidin-4-yl)methyl]piperidin-4-yl}methyl)piperidin-1-yl]-1-oxo-2,3-dihydro-1H-isoindol-2-yl}piperidine-2,6-dione], the DC50 under setting [1] is under 10 nM. Under setting [2], the Dmax is 50 to 70%.

`CC1(Oc2ccc3n[nH]c(-c4cc(N5CCC(CO[C@H]6C[C@H](N7CCC(c8ccc9c(c8F)CN(C8CCC(=O)NC8=O)C9=O)CC7)C6)CC5)ncn4)c3c2)CC1` (stereo partly drawn) [Compound 292, 3-(4-fluoro-1-oxo-5-{1-[(1r,3r)-3-[(1-{6-[5-(1-methylcyclopropoxy)-2H-indazol-3-yl]pyrimidin-4-yl}piperidin-4-yl)methoxy]cyclobutyl]piperidin-4-yl}-2,3-dihydro-1H-isoindol-2-yl)piperidine-2,6-dione]: the Dmax under setting [3] was in the range of 50 to 70%. In addition, the half-maximal degradation concentration (DC50) under setting [4] was under 10 nM.

Consider `COc1c(N2CCC(O[C@H]3CC[C@H](CN4CCN(c5cc(-c6n[nH]c7ccc(OC8(C)CC8)cc67)nc(C)n5)CC4)CC3)CC2)ccc2c1CN(C1CCC(=O)NC1=O)C2=O` (stereo partly drawn) [Compound 367, 3-[4-methoxy-1-oxo-5-(4-{[(1r,4r)-4-[(4-{2-methyl-6-[5-(1-methylcyclopropoxy)-1H-indazol-3-yl]pyrimidin-4-yl}piperazin-1-yl)methyl]cyclohexyl]oxy}piperidin-1-yl)-2,3-dihydro-1H-isoindol-2-yl]piperidine-2,6-dione], for which the half-maximal degradation concentration (DC50) under setting [1] is under 10 nM. For the same compound, the Dmax under setting [2] was in the range of 50 to 70%.

Consider `CC1(Oc2ccc3n[nH]c(-c4cc(N5CCN(CC6(F)CCN(CC7CCN(c8cc9c(cc8F)C(=O)N(C8CCC(=O)NC8=O)C9)CC7)CC6)CC5)ncn4)c3c2)CC1` (stereo not drawn) [Compound 183, 3-[6-fluoro-5-[4-[[4-fluoro-4-[[4-[6-[5-(1-methylcyclopropoxy)-2H-indazol-3-yl]pyrimidin-4-yl]piperazin-1-yl]methyl]-1-piperidyl]methyl]-1-piperidyl]-1-oxo-isoindolin-2-yl]piperidine-2,6-dione], for which, under setting [5], the Dmax is at least 70%. Moreover, the DC50 under setting [6] was under 10 nM.

Take `C[C@H]1CN(c2cc(-c3[nH]nc4cc(F)c(OC5(C)CC5)cc34)ncn2)CCN1CC1(F)CCN(CC2CCN(c3cc4c(cc3F)C(=O)N(C3CCC(=O)NC3=O)C4)CC2)CC1` (stereo partly drawn) [Compound 197, 3-(6-fluoro-5-{4-[(4-fluoro-4-{[(2S)-4-{6-[6-fluoro-5-(1-methylcyclopropoxy)-2H-indazol-3-yl]pyrimidin-4-yl}-2-methylpiperazin-1-yl]methyl}piperidin-1-yl)methyl]piperidin-1-yl}-1-oxo-2,3-dihydro-1H-isoindol-2-yl)piperidine-2,6-dione]: the Dmax under setting [5] is at least 70%. Further, the DC50 under setting [6] was under 10 nM.

Consider `COc1c(N2CCC(O[C@H]3CC[C@H](OC4CCN(c5cc(-c6n[nH]c7cnc(OC8(C)CC8)cc67)ncn5)CC4)CC3)CC2)ccc2c1CN(C1CCC(=O)NC1=O)C2=O` (stereo partly drawn) [Compound 380, 3-[4-methoxy-1-oxo-5-(4-{[(1r,4r)-4-[(1-{6-[5-(1-methylcyclopropoxy)-1H-pyrazolo[3,4-c]pyridin-3-yl]pyrimidin-4-yl}piperidin-4-yl)oxy]cyclohexyl]oxy}piperidin-1-yl)-2,3-dihydro-1H-isoindol-2-yl]piperidine-2,6-dione], for which, under setting [1], the DC50 is under 10 nM. For the same compound, under setting [2], the Dmax is 50 to 70%.

Take `CC1(Oc2cc3c(-c4cc(N5CCN(C[C@@H]6CCN(CC7CCN(c8ccc9c(c8F)CN(C8CCC(=O)NC8=O)C9=O)CC7)C[C@@H]6F)CC5)ncn4)n[nH]c3cc2F)CC1` (stereo partly drawn) [Compound 299, 3-[4-fluoro-5-(4-{[(3r,4s)-3-fluoro-4-[(4-{6-[6-fluoro-5-(1-methylcyclopropoxy)-1H-indazol-3-yl]pyrimidin-4-yl}piperazin-1-yl)methyl]piperidin-1-yl]methyl}piperidin-1-yl)-1-oxo-2,3-dihydro-1H-isoindol-2-yl]piperidine-2,6-dione]: under setting [3], the Dmax is 50 to 70%. Moreover, the 50% degradation concentration (DC50) under setting [4] is under 10 nM.
